Assay results published in patent US10774042B2, “Crystalline forms of apremilast” (ZAKLADY FARMACEUTYCZNE POLPHARMA SA, priority 2016, dated 2020).

Experiments:
Format in all cases: physicochemical
[1] = Water solubility of crystalline forms; conditions: for Water solubility: Form B value according to literature findings and experimental data, Form M at the same conditions
[2] = Moisture sorption analysis (Dynamic Vapour Sorption); conditions: result in words
Procedure: Water Vapour Sorption isotherms were obtained using a Dynamic Vapour Sorption apparatus (model: DVS—Advantage, supplier: Surface Measurement Systems Limited). The DVS apparatus consists of an ultra-microbalance housed inside a temperature-controlled cabinet. The sample was placed into a DVS sample pan under a stream of nitrogen (200 sccm) at 25° C. The humidity was increased ramping in 10% RH (relative humidity) steps from close to 0% RH to 90% RH (sorption phase). Next the humidity was decreased in a similar fashion for the desorption phase. The sample was held at each RH step for mass stabilization (dm/dt 0.02%/min) but not less than 10 minutes. Two cycles of sorption and desorption were investigated.

[3] = Dissolution studies of tablets, paddle method; conditions: at 30 minutes
Procedure: Dissolution studies were performed using a Hanson SR8PLUS dissolution apparatus, according to European Pharmacopoeia apparatus, paddle method. The samples were tested in 900 mL pH 6.8 with 0.3% SLS at 37.0° C.+/−0.5° C. and the paddle rotation speed was set at 75 rpm. Dissolution study was conducted for 60 min and samples were analyzed using HPLC method.

Water solubility [1] [µg/mL]	Water solubility of Form M relative to Form B (times greater) ([1]; same conditions) [times]	Hygroscopicity [2]	Stability with respect to humidity [2]	Higher dissolution rate compared with prior art Form B [3]	SMILES
7 to 12					CCOc1cc([C@@H](CS(C)(=O)=O)N2C(=O)c3cccc(NC(C)=O)c3C2=O)ccc1OC [Form B, N-[2-[(1S)-1-(3-ethoxy-4-methoxyphenyl)-2-(methylsulfonyl)ethyl]-1,3-dioxo-2,3-dihydro-1H-isoindol-4-yl]acetamide, reference compound]
29	~3	substantially non-hygroscopic			CCOc1cc([C@@H](CS(C)(=O)=O)N2C(=O)c3cccc(NC(C)=O)c3C2=O)ccc1OC [Form M, N-[2-[(1S)-1-(3-ethoxy-4-methoxyphenyl)-2-(methylsulfonyl)ethyl]-1,3-dioxo-2,3-dihydro-1H-isoindol-4-yl]acetamide]
		substantially non-hygroscopic	stable with respect to humidity	more than 50%	CCOc1cc([C@@H](CS(C)(=O)=O)N2C(=O)c3cccc(NC(C)=O)c3C2=O)ccc1OC [Form N, N-[2-[(1S)-1-(3-ethoxy-4-methoxyphenyl)-2-(methylsulfonyl)ethyl]-1,3-dioxo-2,3-dihydro-1H-isoindol-4-yl]acetamide]
